From patent EP1857440A1, “Novel compounds, isomer thereof, or pharmaceutically acceptable salts thereof as vanilloid receptor antagonist; and pharmaceutical compositions containing the same” (Amorepacific Corporation, priority 2006, dated 2007) come the findings set out here.

For assay [1], the target named is T1, vanilloid receptor (Rattus norvegicus, UniProt O35433).
T1 construct: DRG nerve cells from the primary culture of 2 days were equilibrated by washing 4 times; endogenous in cells; host or cells: primary culture of dorsal root ganglion (DRG) neurons from neonatal SD rats
T1 sequence (O35433 whole entry): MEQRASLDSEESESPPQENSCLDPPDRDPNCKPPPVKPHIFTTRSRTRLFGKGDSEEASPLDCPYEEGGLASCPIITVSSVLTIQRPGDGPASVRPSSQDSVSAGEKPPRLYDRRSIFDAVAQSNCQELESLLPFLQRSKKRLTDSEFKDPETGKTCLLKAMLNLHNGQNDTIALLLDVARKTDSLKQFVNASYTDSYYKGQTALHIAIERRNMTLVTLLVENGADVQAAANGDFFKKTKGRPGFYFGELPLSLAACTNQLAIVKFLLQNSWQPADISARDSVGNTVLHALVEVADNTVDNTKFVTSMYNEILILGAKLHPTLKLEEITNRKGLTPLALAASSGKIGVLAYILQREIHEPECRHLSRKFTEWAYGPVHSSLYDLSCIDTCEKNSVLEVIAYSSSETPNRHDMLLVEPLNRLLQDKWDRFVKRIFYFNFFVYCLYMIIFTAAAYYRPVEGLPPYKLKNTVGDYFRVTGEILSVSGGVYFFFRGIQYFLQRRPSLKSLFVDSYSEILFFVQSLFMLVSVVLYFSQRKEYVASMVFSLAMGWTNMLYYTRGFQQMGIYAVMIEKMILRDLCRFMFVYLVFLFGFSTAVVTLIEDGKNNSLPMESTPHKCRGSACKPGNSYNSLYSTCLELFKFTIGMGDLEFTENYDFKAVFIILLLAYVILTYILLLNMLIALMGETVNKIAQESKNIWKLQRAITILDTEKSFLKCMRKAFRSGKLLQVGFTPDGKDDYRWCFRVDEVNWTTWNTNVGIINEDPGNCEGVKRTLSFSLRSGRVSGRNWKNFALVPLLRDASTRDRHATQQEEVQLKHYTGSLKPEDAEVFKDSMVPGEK
The assay can be described thus: 45Ca influx test (calcium uptake) in primary cultured neonatal rat DRG neurons, capsaicin-stimulated. The assay is classed as cell-based, SD rats. The conditions noted are these: capsaicin 0.5 µM, 45Ca 10 µCi/ml, 10 mins at room temperature, read-out: Antagonist Calcium Uptake Test (IC50). The protocol:
1) Separation of spinal dorsal root ganglia (DRG) in newborn rats and primary culture thereof
Neonatal (2-3 day old or younger than 2-3 day old) SD rats were put in ice for 5 minutes to anesthetize and disinfected with 70% ethanol. DRG of all part of spinal cord were dissected (Wood et al., 1988, J. Neurosci. 8, pp3208-3220) and collected in DME/F12 medium to which 1.2g/l sodium bicarbonate, 50mg/l gentamycin were added. The DRG were incubated sequentially at 37°C for 30 min in 200 U/ml collagenase and 2.5mg/ml trypsin, separately. The gangiia were washed twice with DME/F12 medium supplemented with 10% horse serum, triturated through a fire-polished Pasteur pipette, filtered through Nitex 80 membrane to obtain single cell suspension and the suspension was washed once more. This was subjected to centrifugation, then resuspended in cell culture medium at certain level of cell density. As the cell culture medium, DME/F12 medium supplemented with 10% horse serum was diluted with identical medium conditioned by C6 glioma cells 2 days on a confluent monolayer (1:1), and NGF (Nerve Growth Factor) was added to adjust 200ng/ml as final concentration. After the cells were grown 2 days in medium where cytosine arabinoside (Ara-C, 100 µM) was added to kill dividing nonneuronal cells, medium was changed to one without Ara-C. The resuspended cells were plated at a density of 1500-2000 neurons/well onto Terasaki plates previously coated with 10 µg/ml poly-D-ornithine.
2) ^45 Ca influx experiments
DRG nerve cells from the primary culture of 2 days were equilibrated by washing 4 times with HEPES (10mM, pH 7.4)-buffered Ca ^2+, Mg^2+-free HBSS (H-HBSS). The solution in each well was removed from the individual well. Medium containing the test compound plus capsaicin (final concentration 0.5 µM) and ^45Ca (final concentration 10 µCi/ml) in H-HBSS was added to each well and incubated at room temperature for 10 mins. Terasaki plates were washed five times with H-HBSS and dried at room temperature. To each well, 0.3% SDS (10 µl) was added to elute ^45Ca. After the addition of scintillation cocktail of into each well, the amount of ^45Ca influx into neuron was measured by counting radioactivity. […] [Table 1] Results of Calcium Influx Test

Assay [2] concerns Male ICR mice. The assay can be described thus: Analgesic activity test: mouse writhing test induced with phenyl-p-quinone. The assay is classed as in vivo. The conditions noted are these: ip, 0.5 h, Dose 1 mg/kg intraperitoneally, 30 min before phenyl-p-quinone, read-out: Analgesic effect (%Inhibition). The protocol:
2. Analgesic activity test: Mouse writhing test by inducing with phenyl-p-quinone
Male ICR mice (mean body weight 25g) were maintained in a controlled lighting environment (12 h on/ 12 h off) for experiment. Animals received an intraperitoneal injection of 0.3ml of the chemical irritant phenyl-p-quinone (dissolved in saline containing 5% ethanol to be a dose of 4.5mg/kg) and 6 mins later, the number of abdominal constrictions was counted in the subsequent 6 mins period. Animals (10 animals/group) received 0.2ml of test compounds solution in vehicle of ethanol/Tween 80/saline (10/10/80) intraperitoneally 30 min before the injection of phenyl-p-quinone. A reduction in the number of writhes responding to the test drug compound relative to the number responding in saline control group was considered to be indicative of an analgesic effect. Analgesic effect was calculated by % inhibition equation (% inhibition=(C-T)/C x 100), wherein C and T represent the number of writhes in control and compound-treated group, respectively (Table 2).

Turning to `CCC(C)c1ccc(OCC(=O)NCc2ccc(NS(C)(=O)=O)c(F)c2)cc1` (centres unmarked) [Example 53, N-(3-Fluoro-4-methanesulfonylaminobenzyl)-2-(4-sec-butylphenoxy)acetamide], the IC50 in assay [1] was 74 nM. Moreover, in assay [2], the inhibition in vivo at 1 mg/kg amounted to 49%.
